In ChEMBL document CHEMBL5143596, “The Design and Optimization of Monomeric Multitarget Peptides for the Treatment of Multifactorial Diseases” (J Med Chem, 2022) one finds half-life and Ki data, which are given here for one compound.

Usually half-life stands for the time needed for the level to fall by half in the phase considered. In general, Ki refers to the equilibrium dissociation constant of an inhibitor or competing ligand from its target.

The nature of data set [1]: Metabolic stability in rat plasma assessed as half life. It counts as ADME, cell-free.
Data set [2] deals with Mu-type opioid receptor (Homo sapiens, UniProt P35372). The data set can be described thus: Binding affinity at MOR (unknown origin) assessed as inhibition constant.
Mu-type opioid receptor, sequence (P35372 whole entry): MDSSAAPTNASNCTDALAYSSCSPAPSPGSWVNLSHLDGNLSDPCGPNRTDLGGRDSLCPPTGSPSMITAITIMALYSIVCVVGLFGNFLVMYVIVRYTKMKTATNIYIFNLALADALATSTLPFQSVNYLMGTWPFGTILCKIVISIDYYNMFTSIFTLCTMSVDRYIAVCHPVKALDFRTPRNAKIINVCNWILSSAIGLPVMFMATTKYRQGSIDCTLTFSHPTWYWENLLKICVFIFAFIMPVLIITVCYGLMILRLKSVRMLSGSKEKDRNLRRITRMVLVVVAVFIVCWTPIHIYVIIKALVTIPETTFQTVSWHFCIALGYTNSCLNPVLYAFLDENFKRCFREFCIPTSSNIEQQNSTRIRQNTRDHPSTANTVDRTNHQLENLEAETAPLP

A value given as a limit tells only on which side of the number the result lay.

As for `Cc1cc(O)cc(C)c1C[C@H](N)C(=O)N[C@H](C)C(=O)NCC(=O)N(C)[C@@H](Cc1ccccc1)C(=O)N1CCC[C@H]1C(=O)N[C@@H](CC(C)C)C(=O)N[C@@H](Cc1c[nH]c2ccccc12)C(=O)NCc1cc(C(F)(F)F)cc(C(F)(F)F)c1`, the half-life in data set [1] is greater than 24 h. Besides, in data set [2], the Ki amounted to 1 nM.
